Measurements as given in patent US20240034717A1, “NOVEL POTASSIUM CHANNEL INHIBITORS” (Saniona A/S, priority 2020, published 2024).
“And” between values parts separate entries of the source, which are not always exact repeats. Identical values can stand only once.

Tests used:
physchem = settings: for solubility at 16 h: 25 °C, pH 7.4, aqueous buffer, kinetic from dmso stock; for Measured Solubility in pH 7.4 phosphate buffer (mg/ml) / Measured Solubility in pH 7.4 phosphate buffer (μM): 50 mM potassium phosphate buffer pH 7.40, 16 hr at ~25° C., incubation concentration 1600 μM
Description: 2.79 g of K2HPO4 and 0.54 g of KH2PO4 was dissolved in 390 mL of milliQ water. pH was adjusted to 7.4 using 1N HCl/1N NaOH and final volume was made up to 400 mL with milliQ water.
In case of compounds not soluble/less quantity submission, 40/20/10Mm stocks were prepared and used for experiment.
Assay Procedure: • 245 μL of 50 mM phosphate buffer then 5 μL each of test compound/standards (80 mM) in their respective positions was added to the 1.1 mL 96 well plate. • DMSO Controls was prepared by taking 245 μL of 100% DMSO then 5 μL each of test compound in their respective positions and added to the 1.1 mL 96 well plate • Plate was incubated with mixing at 1600 RPM for 16 hours at room temperature (˜23 MC). • After incubation, samples were filtered using Millipore plates. • Filtrates were analysed by HPLC-UV.
Solubility is calculated using the following formula: […]

[1] = target: erythrocyte KCa3.1 channels (Homo sapiens (Human), UniProt O15554); assay: Erythrocyte KCa3.1 assay; format: cell-based; settings: human erythrocytes, A23187-activated KCa3.1; read-out: RBC K (in vitro) Human IC50 (μM) Potency category
Description: Human blood was drawn from healthy human volunteers in a standard heparinized blood sampling vial (Vacutainer, Li/heparin, ED Bioscience, Plymouth, UK). The erythrocytes were packed by centrifugation, and the plasma and buffy coat were removed by aspiration. Erythrocytes were washed three times in the experimental salt solution and then stored at 0° C. until use. Blood samples from NMRI mice or from Wistar rats were treated similarly. The methodological principle is outlined in Macey et al. (1978) and further described in Strøbaek et al. (2013). Activation of the erythrocyte KCa3.1 channels were obtained by addition of the Ca^2+ ionophore A23187, which causes synchronized hyperpolarization, which is reported as a CCCP-mediated shift in the unbuffered extracellular pH of the erythrocyte suspension. Standard procedure: 3 mL unbuffered experimental salt solution (in mM: 2 KCl, 154 NaCl, 0.05 CaCl2) was heated to 37° C. with stirring. Packed erythrocytes were added (50 μL, final cytocrit 1.5%), and the extracellular pH (pHo) followed with a glass/calomel (pHG200-8/REF200, Radiometer, Denmark) electrode pair. CCCP (3 μL, final concentration 20 μM) was added followed by varying concentrations of test compounds (DMSO concentration constant). After pH stabilization at ˜7.2, A23187 (3 μL, final concentration 0.33 μM) was added to initiate the experiment. After the peak hyperpolarization was attained, the intracellular pH (pHi constant during the experiment) was found by haemolysing the erythrocytes via addition of 100 μL of Triton-X100.
The erythrocyte membrane potential, Vm, was calculated according to: […]
and the fractional remaining Ca^2+-activated K^+-conductance at the concentration C of blocker, fGK(C), was calculated from
where the K^+ equilibrium potential EK=−107 mV, the Cl^− equilibrium potential ECl=−12 mV and the Vm(0) and Vm(C) are the peak hyperpolarizations in the control and in the presence of a concentration of C of blocker respectively.
IC50 values for compounds were calculated from a plot of fGK(C) versus C by a fit to the Hill equation, using a custom program written in the IGOR-Pro software (WaveMetrics, Lake Oswego, OR, USA). All IC50-values are reported in μM.

SMILES	solubility at 16 h (physchem)	IC50 [1]	Measured Solubility in pH 7.4 phosphate buffer (mg/ml) (physchem)	Measured Solubility in pH 7.4 phosphate buffer (μM) (physchem)
CCOC(=O)N(C[C@@H]1CCCN1)C1(c2ccc(F)c(C(F)(F)F)c2)CC1 [Ethyl (S)-(1-(4-fluoro-3-(trifluoromethyl)phenyl)cyclopropyl)(pyrrolidin-2-ylmethyl)carbamate]	594 µg/mL and 1400 µM	< 0.3 µM	–	–
COC(=O)N(C[C@]1(C)CCCN1)C1(c2ccc(F)c(C(F)(F)F)c2)CC1 [Methyl (S)-(1-(4-fluoro-3-(trifluoromethyl)phenyl)cyclopropyl)((2-methylpyrrolidin-2-yl)methyl)carbamate]	575 µg/mL and 1400 µM	< 0.3 µM	–	–
COC(=O)N(C[C@@H]1CCN1)C1(c2ccc(F)c(C(F)(F)F)c2)CC1 [Methyl (S)-(azetidin-2-ylmethyl)(1-(4-fluoro-3-(trifluoromethyl)phenyl)-cyclopropyl)carbamate]	591 µg/mL and 1700 µM	< 1 µM	–	–
CC(C)(N)CNC1(c2ccc(F)c(C(F)(F)F)c2)CC1 [N1-(1-(4-fluoro-3-(trifluoromethyl)phenyl)cyclopropyl)-2-methylpropane-1,2-diamine]	482 µg/mL and 1700 µM	< 0.3 µM	–	–
COC(=O)N(C[C@@]1(C)CCCN1)C1(c2ccc(F)c(C(F)(F)F)c2)CC1 [Methyl (R)-(1-(4-fluoro-3-(trifluoromethyl)phenyl)cyclopropyl)((2-methylpyrrolidin-2-yl)methyl)carbamate]	585 µg/mL and 1400 µM	< 0.3 µM	–	–
COC(=O)N1CC(N(C(=O)OC)C2(c3ccc(F)c(C(F)(F)F)c3)CC2)C1 [Methyl 3-((1-(4-fluoro-3-(trifluoromethyl)phenyl)cyclopropyl) (methoxycarbonyl)amino)azetidine-1-carboxylate]	27.9 µg/mL and 100 µM	< 0.3 µM	–	–
COC(=O)N(C[C@@H]1CCCN1C)C1(c2ccc(F)c(C(F)(F)F)c2)CC1 [Methyl (S)-(1-(4-fluoro-3-(trifluoromethyl)phenyl)cyclopropyl) ((1-methylpyrrolidin-2-yl)methyl) carbamate]	–	< 0.3 µM	0.5918 mg/ml	1600 μM
COC(=O)N(CC1CCN1)C1(c2ccc(F)c(C(F)(F)F)c2)CC1 (stereo not drawn) [Methyl (azetidin-2-ylmethyl)(1-(4-fluoro-3-(trifluoromethyl)phenyl)cyclopropyl)carbamate]	687 µg/mL and 1500 µM	< 0.3 µM	–	–
CC(C)(O)CN(CC1CCN1)C1(c2ccc(F)c(C(F)(F)F)c2)CC1 (stereo not drawn) [1-((azetidin-2-ylmethyl)(1-(4-fluoro-3-(trifluoromethyl)phenyl)cyclopropyl)amino)-2-methyl propan-2-ol]	755 µg/mL and 1600 µM	< 0.3 µM	–	–
COC(=O)N(C[C@H]1COCCN1)C1(c2ccc(F)c(C(F)(F)F)c2)CC1 [Methyl (S)-(1-(4-fluoro-3-(trifluoromethyl)phenyl)cyclopropyl)(morpholin-3-ylmethyl) carbamate]	–	< 1 µM	0.6118 mg/ml	1500 μM
COC(=O)N(CC(C)(C)N)C1(c2ccc(F)c(C(F)(F)F)c2)CC1 [Methyl (2-amino-2-methylpropyl)(1-(4-fluoro-3-(trifluoromethyl)phenyl)cyclopropyl)carbamate]	556 µg/mL and 1600 µM	< 0.3 µM	–	–
COC(=O)N(C[C@H]1CCCN1C)C1(c2ccc(F)c(C(F)(F)F)c2)CC1 [Methyl (R)-(1-(4-fluoro-3-(trifluoromethyl)phenyl)cyclopropyl)((1-methylpyrrolidin-2-yl)methyl)carbamate]	558 µg/mL and 1500 µM	< 0.3 µM	–	–
Fc1ccc(C2(N(CC3CC3)C3CNC3)CC2)cc1C(F)(F)F [N-(cyclopropylmethyl)-N-(1-(4-fluoro-3-(trifluoromethyl)phenyl)cyclopropyl)azetidin-3-amine]	679 µg/mL and 1500 µM	< 0.3 µM	–	–
COC(=O)N(CC1CCN1C)C1(c2ccc(F)c(C(F)(F)F)c2)CC1 (stereo not drawn) [Methyl (1-(4-fluoro-3-(trifluoromethyl)phenyl)cyclopropyl)((1-methylazetidin-2-yl)methyl)carbamate]	598 µg/mL and 1700 µM	< 0.3 µM	–	–
CS(=O)(=O)N(C[C@@H]1CCCN1)C1(c2ccc(F)c(C(F)(F)F)c2)CC1 [(S)-N-(1-(4-fluoro-3-(trifluoromethyl)phenyl)cyclopropyl)-N-(pyrrolidin-2-ylmethyl) methanesulfonamide]	–	< 1 µM	0.3218 mg/ml	800 μM
COC(=O)N(C[C@@H]1CCCN1)C1(c2ccc(F)c(OC(F)(F)F)c2)CC1 [Methyl (S)-(1-(4-fluoro-3-(trifluoromethoxy)phenyl)cyclopropyl)(pyrrolidin-2-ylmethyl)carbamate]	674 µg/mL and 1600 µM	< 0.3 µM	–	–
COC(=O)N(CC1(N)CC1)C1(c2ccc(F)c(C(F)(F)F)c2)CC1 [Methyl ((1-aminocyclopropyl)methyl)(1-(4-fluoro-3-(trifluoromethyl)phenyl)cyclopropyl) carbamate]	–	< 0.3 µM	0.5599 mg/ml	1600 μM
COC(=O)N(C[C@H]1COCCN1C)C1(c2ccc(F)c(C(F)(F)F)c2)CC1 [Methyl (S)-(1-(4-fluoro-3-(trifluoromethyl)phenyl)cyclopropyl)((4-methylmorpholin-3-yl)methyl)carbamate]	600 µg/mL and 1500 µM	< 0.3 µM	–	–
N[C@H]1CCC[C@H]1NC1(c2ccc(F)c(C(F)(F)F)c2)CC1 [(1R,2S)-N1-(1-(4-fluoro-3-(trifluoromethyl)phenyl)cyclopropyl)-cyclopentane-1,2-diamine]	480 µg/mL and 1400 µM	< 0.3 µM	–	–
COC(=O)N(C[C@H]1CCCN1)C1(c2ccc(F)c(OC(F)(F)F)c2)CC1 [Methyl (R)-(1-(4-fluoro-3-(trifluoromethoxy)phenyl)cyclopropyl)(pyrrolidin-2-ylmethyl)carbamate]	677 µg/mL and 1600 µM	< 1 µM	–	–
N[C@H]1CCC[C@@H]1NC1(c2ccc(F)c(C(F)(F)F)c2)CC1 [(1S,2S)-N1-(1-(4-fluoro-3-(trifluoromethyl)phenyl)cyclopropyl)-cyclopentane-1,2-diamine]	239 µg/mL and 700 µM	< 1 µM	–	–
COC(=O)N(CC(C)(C)N)C1(c2cc(C(F)(F)F)c(F)cn2)CC1 [Methyl (2-amino-2-methylpropyl)(1-(5-fluoro-4-(trifluoromethyl)pyridin-2-yl)cyclopropyl) carbamate]	–	< 1 µM	0.5636 mg/ml	1500 μM
COC(=O)N(CC(C)(C)N)C1(c2cc(Cl)cc(Cl)c2)CC1 [Methyl (2-amino-2-methylpropyl)(1-(3,5-dichlorophenyl)cyclopropyl)carbamate]	578 µg/mL and 1600 µM	< 0.3 µM	–	–
CCOC(=O)N(CC(C)(C)N)C1(c2ccc(F)c(C(F)(F)F)c2)CC1 [Ethyl (2-amino-2-methylpropyl)(1-(4-fluoro-3-(trifluoromethyl)phenyl)cyclopropyl)carbamate]	607 µg/mL and 1500 µM	< 0.3 µM	–	–
COC(=O)N(CC(C)(C)N)C1(c2cccc(Br)c2)CC1 [Methyl (2-amino-2-methylpropyl)(1-(3-bromophenyl)cyclopropyl)carbamate]	376 µg/mL and 800 µM	< 1 µM	–	–
COC(=O)N(CC1CCN1)C1(c2ccc(F)c(OC(F)(F)F)c2)CC1 (stereo not drawn) [Methyl (azetidin-2-ylmethyl)(1-(4-fluoro-3-(trifluoromethoxy)phenyl)cyclopropyl)carbamate]	558 µg/mL and 1500 µM	< 0.3 µM	–	–
